# Legend:
# [1] = Quinone Quantal Writhing Test (analgesic activity); format: in vivo; conditions: 50 mg/kg po
# Protocol: L. C. Hendershot and J. Fersaith, J. Pharmac. exp. Therap. 1959, 125, 237-240.
# Compounds 1 and 2 had analgesic activity giving 10 and 50 percent inhibition respectively at a dose of 50 mg/kg po.
# [2] = Croton Oil Test (topical anti-inflammatory activity); format: in vivo, rat (Charles River Wistar); conditions: 1 mg/ear, 6 hours
# Protocol: Compounds were tested for anti-inflammatory activity in a topical model based on that described by Fregnan G. B. and Torsello, A. L. (1975), Current Therapeutic Research 17, No. 4, 375-381. In outline the method is as follows:
# Rats, Charles River Wistar Strain, female, 10/group. Weight range 200-240 g.
# Irritant solution applied consists of 1% croton oil in tetrahydrofuran. 0.05 ml is placed on each ear, compound being included in the irritant solution on one ear. 6 hours later the ears are removed by cutting along the hairline and weighed.
# -ve control--no irritant solution.
# +ve control--irritant solution on both ears.
# [3] = Carrageenin Test (paw volume); format: in vivo, rat (OLAC Wistar); conditions: 3 hours after carrageenin
# Protocol: Groups of 8 OLAC Wistar male rats (140-170 g) received the Compounds orally 1 hour before 0.1 ml of 0.5% λ carrageenin injected into the right hind paw. Paw volumes were measured by mercury displacement 3 hours after carrageenin.
# [4] = Mouse Oxazolone Screen (topical anti-inflammatory activity); format: in vivo; conditions: 24 hr after challenge; for inhibition in vivo at 200 µg/ear: 200 μg/ear; for inhibition in vivo at 100 µg/ear: 100 μg/ear
# Protocol: Compounds were tested for topical anti-inflammatory activity in a mouse oxazolone screen, by a method modified from that of Dietrich and Hess [Int. Arch. Allergy, 38, 246 (1970)].
# Mice were sensitised with oxazolone (2 mg in EtOH) on a shaved area of the abdomen, and then challenged with oxazolone (100 μg) with or without the test compound on the left ear 5 days later.
# [5] = Rat Cantharidin Screen (topical anti-inflammatory activity); format: in vivo; conditions: 72 hrs
# Protocol: Compounds were tested for topical anti-inflammatory activity in a cantharidin rat ear screen, by a method described by A. Boris et al, [J. Invest. Dermatol. 68, 161 (1977)].
# Cantharidin (450 μg) in a suitable solvent, such as methanol or tetrahydrofuran applied topically to one rat ear, causes severe inflammation giving approximately double the normal weight at 72 hrs. compared to the other, untreated ear. The test compounds were applied simultaneously with cantharidin in tetrahydrofuran.
# [6] = in mice; cited from earlier work
structure (smiles),measurement,setting,value
"c1cc2[nH]ncc2nc1N1CCCCC1 [Compound 1, 5-Piperidino-1H-pyrazolo(4,3-b)pyridine]",percent inhibition (analgesic activity),[1],10%
same,% Inhibition,[2],32.9%
same,% Inhibition,[3]; 88 mg/kg orally,34%
"Cc1cc(N2CCCCC2)c2[nH]ncc2n1 [Compound 2, 5-Methyl-7-piperidino-1H-pyrazolo(4,3-b)pyridine]",percent inhibition (analgesic activity),[1],50%
same,% Inhibition,[2],34.8%
same,% Inhibition,[3]; 81 mg/kg orally,41.7%
"Cc1ccc(Sc2cc(C)nc3cn[nH]c23)cc1 [Compound 3, 5-Methyl-7-(p-tolythio)-1H-pyrazolo(4,3-b)pyridine]",inhibition in vivo at 200 µg/ear,[4],37%
"Cc1cc(Nc2ccccc2)c2[nH]ncc2n1 [Compound 4, 7-Anilino-5-methyl-1H-pyrazolo(4,3-b)pyridine]",% Inhibition,[2],71.7%
same,inhibition in vivo at 200 µg/ear,[4],81%
same,inhibition in vivo at 1 mg/ear,[5],42%
same,% Inhibition,[3]; 75 mg/kg orally,40.2%
"Cc1cc(Nc2ccccc2)c2nn(C)cc2n1 [Compound 5, 7-Anilino-2,5-dimethyl-2H-pyrazolo(4,3-b)pyridine]",inhibition in vivo at 200 µg/ear,[4],63%
same,inhibition in vivo at 2 mg/ear,[5],44%
"CCOc1ccc(Nc2cc(C)nc3cn[nH]c23)cc1 [Compound 7, 7-(4-Ethoxyanilino)-5-methyl-1H-pyrazolo[4,3-b]pyridine]",inhibition in vivo at 100 µg/ear,[4],56%
same,inhibition in vivo at 2 mg/ear,[5],25%
"Cc1cc(Nc2ccccc2C)c2[nH]ncc2n1 [Compound 8, 7-(2-Methylanilino)-5-methyl-1H-pyrazolo[4,3-b]pyridine]",inhibition in vivo at 100 µg/ear,[4],31%
same,inhibition in vivo at 0.9 mg/ear,[5]; 0.9 mg/ear,56%
"Cc1cc(Sc2ccccc2)c2[nH]ncc2n1 [Compound 9, 5-Methyl-7-phenylthio-1H-pyrazolo[4,3-b]pyridine]",inhibition in vivo at 100 µg/ear,[4],61%
same,inhibition in vivo at 1 mg/ear,[5],40%
"CCCCNc1cc(C)nc2cn[nH]c12 [Compound 10, 7-n-Butylamino-5-methyl-1H-pyrazolo[4,3-b]pyridine]",inhibition in vivo at 100 µg/ear,[4],54%
same,inhibition in vivo at 0.5 mg/ear,[5]; 0.5 mg/ear,76%
"Cc1cc(NC2CCCCC2)c2[nH]ncc2n1 [Compound 11, 7-Cyclohexylamino-5-methyl-1H-pyrazolo[4,3-b]pyridine]",inhibition in vivo at 1 mg/ear,[5],66%
"CCOc1cccc(Nc2cc(C)nc3cn[nH]c23)c1 [Compound 12, 7-(3-Ethoxyanilino)-5-methyl-1H-pyrazolo[4,3-b]pyridine]",inhibition in vivo at 1 mg/ear,[5],41%
"Cc1cc(Nc2ccc(Cl)cc2)c2[nH]ncc2n1 [Compound 14, 7-(4-Chloroanilino)-5-methyl-1H-pyrazolo[4,3-b]pyridine]",inhibition in vivo at 2 mg/ear,[5],27%
"COc1ccc(Nc2cc(C)nc3cn[nH]c23)cc1 [Compound 15, 7-(4-Methoxyanilino)-5-methyl-1H-pyrazolo[4,3-b]pyridine]",inhibition in vivo at 1 mg/ear,[5],41%
"Cc1cc(N(C)c2ccccc2)c2[nH]ncc2n1 [Compound 17, 7-(N-Methylanilino)-5-methyl-1H-pyrazolo[4,3-b]pyridine]",inhibition in vivo at 100 µg/ear,[4],32%
same,inhibition in vivo at 1 mg/ear,[5],31%
"c1ccc(Nc2ccnc3cn[nH]c23)cc1 [Compound 19, 7-Anilino-1H-pyrazolo[4,3-b]pyridine]",inhibition in vivo at 1 mg/ear,[5],50%
"Cc1cc(Nc2ccc(C(C)(C)C)cc2)c2[nH]ncc2n1 [Compound 22, 5-Methyl-7-p-t-butylanilino-1H-pyrazolo[4,3-b]pyridine]",inhibition in vivo at 1 mg/ear,[5],68%
"Cc1cc(Nc2ccc(Cl)c(Cl)c2)c2[nH]ncc2n1 [Compound 24, 7-(3,4-Dichloroanilino)-5-methyl-1H-pyrazolo[4,3-b]pyridine]",inhibition in vivo at 1 mg/ear,[5],29%
CC(=O)N(C(C)=O)c1cc(C)nc2c(C)n[nH]c12 [The compound wherein R is NAc2],CNS antidepressant activity,[6],having CNS antidepressant activity

# Source: patent US4559348A, “5- And/or 7-substituted pyrazolo-[4,3-b]-pyridines and their use as antiinflammatory agents” (Beecham Group, p.l.c., priority 1983, dated 1985)
